# Data published in patent US20150039274A1, “SYSTEM AND METHOD FOR PERSONALIZED METABOLIC MODELING” (Ramot at Tel-Aviv University Ltd., priority 2013, published 2015).
# Test system: RPMI-8226 cells
# Assay: Cell proliferation of RPMI-8226 cells with doxycycline-inducible MLYCD shRNA, with or without N-acetyl-cysteine
# Type: cell-based, human
# Conditions: RPMI-8226 shRNA cells; 2 mM N-Acetyl Cysteine
# Experimental: HapMap cells (GM06997, CEPH/UTAH pedigree 13291) were obtained from Coriell Institute and RPMI-8226 and K562 cells were obtained from NCI-Frederick Cancer DCTD Tumor/Cell line Repository. Cells were grown in RPMI 1640 plus 10% fetal bovine serum (FBS) in the presence of 5% carbon dioxide. Cell count was determined using a CASY Cell Counter (Roche Applied Science). Where indicated, cells were incubated with 2 mM N-acetyl-cysteine.
# The viral supernatant for infection was obtained from the filtered growth media of the packaging cells HEK293T transfected with 3 μg psPAX, 1 μg pVSVG, 4 μg of shRNA contructs and 24 μl Lipofectamine 2000 (Life Technology) and the relevant shRNAs. 5×10^5 cells were then plated on 6-well plates and infected with the viral supernatant in the presence of 4 μg/mL polybrene. After two days, the medium was replaced with selection medium containing 2 μg/mL puromycin.
# The expression of the shRNA constructs was induced by incubating cells with 2 μg/mL Doxycyclin.
smiles,measurement,value
CC(=O)N[C@@H](CS)C(=O)O [N-Acetyl-cysteine],cell proliferation of MLYCD-deficient cells in the presence of antioxidant,restored the proliferative defects
